Converted amounts (≈) assume the structure as drawn.
What was measured:
Format in all cases: functional
[1] = test system: Escherichia coli; assay: Antimicrobial activity against Escherichia coli ATCC 25922
[2] = test system: Bacillus cereus; assay: Antimicrobial activity against Bacillus cereus ATCC 10702
[3] = test system: Staphylococcus epidermidis; assay: Antimicrobial activity against Staphylococcus epidermidis ATCC 12228
[4] = test system: KB; assay: Cytotoxicity against human KB cells
[5] = test system: Caco-2; assay: Cytotoxicity against human Caco-2 cells
[6] = test system: Biomphalaria glabrata; assay: Antimolluscicidal activity against Biomphalaria glabrata

Q: For CN(C)[C@@H]1C(O)=C(C(N)=O)C(=O)[C@@]2(O)C(O)=C3C(=O)c4c(O)cccc4[C@@](C)(O)[C@H]3C[C@@H]12 [TETRACYCLINE], which MIC [1] is on record?
A: The MIC was 64 mg/L (≈ 144 µM).

Q: What does the source list for O=C(N[C@H](CO)[C@H](O)c1ccc([N+](=O)[O-])cc1)C(Cl)Cl [CHLORAMPHENICOL]?
A: MIC [2]: 8 mg/L (≈ 24.8 µM); MIC [3]: 4 mg/L (≈ 12.4 µM)

Q: C[C@@H]1CC[C@@]2(C)[C@@H](CC[C@]3(C)[C@@H]2CC[C@@]3(C)C=O)[C@]1(C)Cc1cc(C(=O)O)ccc1O [COMNASTIN B] was tested. Which MIC [1] did it give?
A: The MIC was 128 mg/L (≈ 300 µM).

Q: And the MIC [4]?
A: The MIC was 0.4 mg/L (≈ 0.938 µM).

Q: What about the MIC [5] of the same compound?
A: The MIC was 0.18 mg/L (≈ 0.422 µM).

Q: And the MIC [6]?
A: Its MIC is 20 mg/L (≈ 46.9 µM).

Q: And the MIC [2]?
A: The MIC was 32 mg/L (≈ 75 µM).

Q: And the MIC [3]?
A: Its MIC is 16 mg/L (≈ 37.5 µM).

Q: Which results are given for C[C@@H]1CC[C@@]2(C)[C@@H](CC[C@]3(C)[C@@H]2CC[C@@]3(C)C(=O)O)[C@]1(C)Cc1cc(C(=O)O)ccc1O [COMNASTIN C]?
A: MIC [1]: 64 mg/L (≈ 145 µM); MIC [2]: 32 mg/L (≈ 72.3 µM); MIC [3]: 16 mg/L (≈ 36.2 µM)

Q: For COc1cc([C@@H]2c3cc4c(cc3[C@H](O)[C@H]3COC(=O)[C@H]23)OCO4)cc(OC)c1OC [PODOFILOX], which MIC [4] is on record?
A: The MIC was 0.01 mg/L (≈ 0.0241 µM).

Q: What about the MIC [5] of the same compound?
A: The MIC was 0.02 mg/L (≈ 0.0483 µM).

Q: How did the MIC [1] turn out when C[C@@H]1CC[C@@]2(C)[C@@H](CC[C@]3(C)[C@@H]2CC[C@@]3(C)CO)[C@]1(C)Cc1cc(C(=O)O)ccc1O [COMNASTIN A] was run?
A: Its MIC is 128 mg/L (≈ 299 µM).

Q: What about the MIC [2] of the same compound?
A: Its MIC is 32 mg/L (≈ 74.7 µM).

Q: What about the MIC [3] of the same compound?
A: Its MIC is 16 mg/L (≈ 37.3 µM).

Q: With COC(OC)[C@]1(C)CC[C@@H]2[C@@]3(C)CC[C@@H](C)[C@@](C)(Cc4cc(C(=O)O)ccc4O)[C@@H]3CC[C@]21C [COMNASTIN D] as the compound, how does the MIC [1] read?
A: The MIC was 128 mg/L (≈ 271 µM).

Q: What about the MIC [2] of the same compound?
A: Its MIC is 16 mg/L (≈ 33.9 µM).

Q: What about the MIC [3] of the same compound?
A: Its MIC is 32 mg/L (≈ 67.7 µM).

Q: How did the MIC [2] turn out when CC(=O)[C@@H]1CC[C@@H]2[C@@]3(C)CC[C@@H](C)[C@@](C)(Cc4cc(C(=O)O)ccc4O)[C@@H]3CC[C@]21C [COMNASTIN E] was run?
A: The MIC was 128 mg/L (≈ 300 µM).

Q: What about the MIC [3] of the same compound?
A: Its MIC is 4 mg/L (≈ 9.38 µM).

From ChEMBL document CHEMBL1155691, “Novel extracellular diterpenoids with biological activity from the cyanobacterium Nostoc commune” (2000)
